Assay results: article PMC8138732, “Comparative study of His- and Non-His-tagged CLIC proteins, reveals changes in their enzymatic activity” (Biochemistry and Biophysics Reports, 2021)

Columns and labels:
non-His-tagged CLIC3 = biological target: T1, non-His-tagged CLIC3 (Homo sapiens, UniProt O95833); assay: HEDS assay coupled to glutathione reductase, NADPH consumption at […] nm; type: biochemical; conditions: 1 mM GSH fixed, 250 uM NADPH, 0.5 ug/mL GR, 10 uM enzyme, 5 mM potassium phosphate, 1 mM EDTA, pH 7, 37 C; imidazole-free storage buffer
T1 construct: E. coli BL21(DE3); Ni-NTA and SEC; reduced soluble monomer

non-His-tagged CLIC1 = non-His-tagged CLIC1 (Homo sapiens, UniProt O00299); conditions: 1 mM GSH fixed, 250 uM NADPH, 0.5 ug/mL GR, 10 uM enzyme, 5 mM potassium phosphate, 1 mM EDTA, pH 7, 37 C; imidazole-free storage buffer

T1 sequence (O95833 whole entry): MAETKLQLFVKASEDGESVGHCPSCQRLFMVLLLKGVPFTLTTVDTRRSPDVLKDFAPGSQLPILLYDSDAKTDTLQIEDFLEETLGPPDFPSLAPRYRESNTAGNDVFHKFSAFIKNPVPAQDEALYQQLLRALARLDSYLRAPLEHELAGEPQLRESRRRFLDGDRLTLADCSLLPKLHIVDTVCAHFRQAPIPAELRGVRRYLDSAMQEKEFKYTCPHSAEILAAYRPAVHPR

OCCSSCCO [HEDS]
Km (non-His-tagged CLIC3): 994 µM
Km (non-His-tagged CLIC1): 2500 µM
